The record followed here is ChEMBL document CHEMBL3091457, “Design, synthesis, and biological activities of novel hexahydropyrazino[1,2-a]indole derivatives as potent inhibitors of apoptosis (IAP) proteins antagonists with improved membrane permeability across MDR1 expressing cells” (Bioorg Med Chem, 2013).

Data set [1] has as its target T1, MDR1 (ABCB1, P-glycoprotein) (Homo sapiens, UniProt P08183). In words: Activity at human MDR1 expressed in pig LLC-PK1 cells assessed as apparent permeability at 10 umol/L after 2 hrs by LC-MS/MS analysis. The data set is classed as ADME, cell-based.
Data set [2] deals with T1, MDR1 (ABCB1, P-glycoprotein). In words: Activity at human MDR1 expressed in pig LLC-PK1 cells assessed as efflux ratio of permeability from basolateral to apical side over apical to basolateral side at 10 umol/L after 2 hrs by LC-MS/MS analysis. The data set is classed as ADME, cell-based.
For data set [3], the system named is MDA-MB-231. In words: Growth inhibition of human MDA-MB-231 cells after 72 hrs by CellTiter-Glo assay. The data set is classed as functional. The note with it: MDA-MB-231, 72 h. (In general: ATP-based viability assays read luminescence as a measure of living cells.)

T1 sequence (P08183 whole entry): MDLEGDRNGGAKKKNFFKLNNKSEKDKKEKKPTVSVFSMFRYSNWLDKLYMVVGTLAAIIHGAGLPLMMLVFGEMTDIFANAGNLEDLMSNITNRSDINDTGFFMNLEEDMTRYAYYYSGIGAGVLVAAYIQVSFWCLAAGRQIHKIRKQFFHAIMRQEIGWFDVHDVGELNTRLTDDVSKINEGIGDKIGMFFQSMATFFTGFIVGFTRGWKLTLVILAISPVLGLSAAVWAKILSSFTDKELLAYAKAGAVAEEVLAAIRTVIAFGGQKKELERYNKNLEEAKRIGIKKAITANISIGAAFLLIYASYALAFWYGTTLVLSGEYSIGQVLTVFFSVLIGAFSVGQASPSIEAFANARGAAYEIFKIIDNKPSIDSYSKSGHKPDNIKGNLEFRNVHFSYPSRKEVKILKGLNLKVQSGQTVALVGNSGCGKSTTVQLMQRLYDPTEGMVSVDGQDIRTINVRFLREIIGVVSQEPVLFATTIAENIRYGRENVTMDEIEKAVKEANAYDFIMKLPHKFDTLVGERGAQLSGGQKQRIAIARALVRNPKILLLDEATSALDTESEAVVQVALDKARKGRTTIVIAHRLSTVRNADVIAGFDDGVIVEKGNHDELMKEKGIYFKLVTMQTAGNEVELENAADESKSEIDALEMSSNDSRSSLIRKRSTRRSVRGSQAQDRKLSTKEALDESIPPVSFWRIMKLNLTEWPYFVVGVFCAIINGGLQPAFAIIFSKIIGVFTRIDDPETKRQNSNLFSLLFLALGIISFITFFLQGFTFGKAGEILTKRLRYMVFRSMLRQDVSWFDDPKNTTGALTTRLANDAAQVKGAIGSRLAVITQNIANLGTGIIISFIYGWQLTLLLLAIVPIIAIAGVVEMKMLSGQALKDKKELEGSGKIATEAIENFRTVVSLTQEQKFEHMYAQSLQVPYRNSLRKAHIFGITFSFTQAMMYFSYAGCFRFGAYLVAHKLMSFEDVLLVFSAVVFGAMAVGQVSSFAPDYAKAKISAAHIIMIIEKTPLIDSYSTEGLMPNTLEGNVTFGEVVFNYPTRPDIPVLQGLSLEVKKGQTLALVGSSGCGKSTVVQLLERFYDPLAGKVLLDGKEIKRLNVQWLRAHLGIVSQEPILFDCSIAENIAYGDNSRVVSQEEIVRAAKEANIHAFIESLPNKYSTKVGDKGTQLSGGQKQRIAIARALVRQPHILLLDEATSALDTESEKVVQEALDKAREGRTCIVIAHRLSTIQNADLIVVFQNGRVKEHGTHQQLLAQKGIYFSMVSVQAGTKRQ

As to `CCO[C@@H]1C[C@@H]2CN(C(=O)[C@@H](NC(=O)[C@H](C)NC)C3CCC(F)(F)CC3)[C@H](C(=O)N[C@@H]3CCOc4ccccc43)CN2C1`, the Papp at 2 h, 10 µM in data set [1] was 0.1 ×10⁻⁶ cm/s. Further, the efflux ratio at 2 h, 10 µM in data set [2] is 24.

Turning to `CN[C@@H](C)C(=O)N[C@H](C(=O)N1C[C@H]2CCCN2C[C@H]1C(=O)N[C@@H]1CCOc2ccccc21)C1CCCCC1`, it took 5.7 nM to inhibit growth in data set [3] by half (GI50). The Papp at 2 h, 10 µM in data set [1] came out at 0.5 ×10⁻⁶ cm/s.

In data set [3], `CN[C@@H](C)C(=O)N[C@H](C(=O)N1C[C@H]2Cc3ccccc3N2C[C@H]1C(=O)N[C@@H]1CCOc2ccccc21)C1CCCCC1` returned a GI50 of 15 nM. Further, the Papp at 2 h, 10 µM in data set [1] is 4.1 ×10⁻⁶ cm/s.

`CC[C@H](NC)C(=O)N[C@H](C(=O)N1C[C@@H]2Cc3cc(Cl)cc(Cl)c3N2C[C@H]1C(=O)N[C@@H]1CCOc2ccccc21)C1CCCCC1` registered a GI50 in data set [3] of 5.9 nM. In data set [1], the Papp at 2 h, 10 µM was determined as 7.5 ×10⁻⁶ cm/s.

Take `CC[C@H](NC)C(=O)N[C@H](C(=O)N1C[C@@H]2Cc3cc(Cl)ccc3N2C[C@H]1C(=O)N[C@@H]1CCOc2ccccc21)C1CCCCC1`: the Papp at 2 h, 10 µM in data set [1] is 6.4 ×10⁻⁶ cm/s.

Take `CC[C@H](NC)C(=O)N[C@H](C(=O)N1C[C@@H]2Cc3cc(C#N)ccc3N2C[C@H]1C(=O)N[C@@H]1CCOc2ccccc21)C1CCCCC1`: in data set [3], growth was halved (GI50) at 1.9 nM. The Papp at 2 h, 10 µM in data set [1] is 1.4 ×10⁻⁶ cm/s.

Consider `CN[C@@H](C)C(=O)N[C@H](C(=O)N1C[C@@H]2CCCN2C[C@H]1C(=O)N[C@@H]1CCOc2ccccc21)C1CCCCC1`, for which the GI50 in data set [3] is 13 nM. Moreover, the Papp at 2 h, 10 µM in data set [1] was determined as 0.3 ×10⁻⁶ cm/s.

In data set [3], `CC[C@H](NC)C(=O)N[C@H](C(=O)N1C[C@H]2CCCN2C[C@H]1C(=O)N[C@@H]1CCOc2ccccc21)C1CCCCC1` showed a GI50 of 4.6 nM.

In the case of `CC[C@H](NC)C(=O)N[C@H](C(=O)N1C[C@@H]2Cc3ccccc3N2C[C@H]1C(=O)N[C@@H]1CCOc2ccccc21)C1CCCCC1`, growth in data set [3] was halved (GI50) at 1.8 nM. For the same compound, in data set [1], the Papp at 2 h, 10 µM turned out to be 2.5 ×10⁻⁶ cm/s.

Take `CC[C@H](NC)C(=O)N[C@H](C(=O)N1C[C@H]2Cc3ccccc3N2C[C@H]1C(=O)N[C@@H]1CCOc2ccccc21)C1CCCCC1`: in data set [3], the GI50 is 4.4 nM. Besides, the Papp at 2 h, 10 µM in data set [1] came to 8.6 ×10⁻⁶ cm/s.

As usually defined, the Papp is a coefficient for how fast a substance crosses the barrier. In general, efflux ratio refers to the permeability from basolateral to apical divided by that in the opposite direction, in the common usage. The GI50 is the concentration giving 50% growth inhibition.
